The nature of series [1]: Excitation and fluorescence emission wavelength measured with fluorescence spectrophotometer. It is filed as physicochemical. The following applies: aqueous solution, 10 mg/mL DMSO solution diluted 500-fold with purified water.
Series [2] concerns hair cell (neuromast) of Zebrafish. Put plainly: Staining of hair cell (neuromast) of Zebrafish juveniles with probe, fluorescence stereomicroscope image visually evaluated. The series is classed as in vivo. The note with it: dye concentration 250 μg/mL, 1 hour, Zebrafish juveniles Day 7 after fertilization.
The test system is the same in series [3]. The description is as above. The note with it: dye concentration 1 μg/mL, 1 hour, Zebrafish juveniles Day 7 after fertilization. On the set-up: Fluorescence intensity: key to the marks not given beside the values. The series is classed as in vivo. The protocol:
A staining compound (1) was dissolved in DMSO to prepare a stock solution at a concentration of 1 mg/mL. The stock solution was diluted with distilled water to prepare a hair cell staining solution 1 having a dye concentration of 1 μg/mL. Further, Egg Water was prepared by dissolving artificial seawater SEALIFE (manufactured by Marinetech Co., Ltd.) in distilled water at a concentration of 60 mg/L. Five juveniles (embryos on Day 7 after fertilization) of Zebrafish were placed into any one of wells of a 24-well multiwell plate together with feeding water. The feeding water was discharged and 1 mL of the hair cell staining solution 1 was added. After the whole had been left to stand for 1 hour, the hair cell staining solution 1 in the well was discharged and replaced by 1 mL of fresh Egg Water. In addition, such an operation that Egg Water was discharged and replaced by 1 mL of fresh Egg Water was repeated twice. One of the juveniles was taken out from the well onto a dish, the motion of the juvenile was restricted by addition of methylcellulose, and a fluorescence image was captured with a fluorescence stereomicroscope. MZ16FA manufactured by Leica Microsystems K.K. was used as a stereoscopic microscope.
An image pickup unit (a digital camera DP72 for a microscope manufactured by Olympus Corporation) of a fluorescence stereomicroscope was remodeled by removing an IR cut filter so as to capture a fluorescence image in a near-infrared wavelength region.

For series [4], the system named is juvenile neuromast (hair cell) of Zebrafish. Put plainly: Change in staining intensity of neuromast due to morpholino knockdown of target genes (SLC25A12, TRPC2). It is filed as in vivo. The note with it: for Increase of staining properties by knockdown of SLC25A12 and TRPC2 genes: each of SLC25A12 and TRPC2 knockdown; for Ratio of staining intensity (KD/control): juveniles Day 7. The protocol: In order to knockdown a specific gene, a mixed solution containing a morpholino antisense oligonucleotide (MO) was prepared. MO was synthesized by using GeneTools, LLC (Philomath, Oreg.). A morpholino antisense oligonucleotide (atgMO) designed so that the translation from a start codon to a protein would be inhibited was dissolved in distilled water to prepare a MO mixed solution having the following composition.
A fertilized embryo within 1 hour after fertilization (before a second cleavage period) of Zebrafish was microinjected with the MO mixed solution. A capillary made of glass (inner diameter: 0.6 mm) having a sharp extremity obtained by extending and cutting a glass tube with a PC-10 puller (manufactured by Narishige Co., Ltd.) and grinding the cross section with a EG-400 grinder (manufactured by Narishige Co., Ltd.) was used for the microinjection. Feeding water and the fertilized embryo were placed into a 10-cm dish in which 1% agarose had been bedded, and the microinjection was performed under a stereoscopic microscope. During injection, one of a manual injector IM-9A (manufactured by Narishige Co., Ltd.) and an electrical microinjector IM-30 (manufactured by Narishige Co., Ltd.) was connected to the capillary made of glass, to thereby perform infusion with pressure. The infusion amount of MO was set to 1 to 10 ng per fertilized embryo.
Because the MO mixed solution is supplemented with a dye (0.005% phenol red), the success or failure of the infusion of the MO mixed solution may be confirmed with the naked eye. Further, because the MO mixed solution is supplemented with a fluorescent protein expression vector (EGFP), on Day 3 after infusion, the success or failure of the microinjection can be confirmed after the fertilized embryo has hatched (a sample in which a signal derived from the fluorescent protein was observed also retains MO in Zebrafish).
Juveniles (embryos on Day 7 after fertilization) of Zebrafish were stained in the same manner as that in Example 1, and a change in staining condition of the hair cell was measured.
The compound (54) was selected as the probe for a hair cell and compared with FM1-43. Further, SLC25A12 and TRPC2 were selected as target genes. The staining intensity of a juvenile neuromast having unknockdown genes was used as a control, and compared with the staining intensity of a juvenile neuromast in which each of the target genes has been knockdown by representing a fluorescence image obtained with a stereoscopic microscope in numerical values.

For series [5], the system named is neuromast (hair cell) of Zebrafish. The series can be described thus: Staining intensity of neuromast at different concentrations of staining agent (fluorescence intensity per unit intake time). It is filed as in vivo. The following applies: 10, 30 and 100 ng/mL staining solutions, intensity/msec. As to the method: The compounds (43), (54), and (65) were selected as probes for a hair cell, and compared with FM1-43. Three kinds of staining solutions containing those staining agents were prepared at concentrations of 10 ng/mL, 30 ng/mL, and 100 ng/mL. Juveniles of (embryos on Day 7 after fertilization) of Zebrafish were stained in the same manner as that in Example 1. When a fluorescence image is acquired with a fluorescence stereomicroscope, the fluorescence intensity per unit intake time (intensity/msec) was calculated by changing an intake time (exposure time) and dividing the fluorescence intensity (Relative Fluorescence Unit, RFU) of a neuromast of the obtained fluorescence image by the intake time.

The subject of another series is hair cell of Zebrafish. The note with it: 5 μM chemical substance, 24 hours exposure, Zebrafish Day 7 after fertilization, stained with staining compound 54. The protocol:
Zebrafish after exposure was washed with distilled water. The same operation as that in Example 1 was performed except that the staining compound (1) used in Example 1 was changed to a staining compound (54).

Molecules are shown by their SMILES.

In series [1], `CC[n+]1ccccc1C=Cc1ccc(N(C)C)cc1.[I-]` [DASPEI, 2-(4-(dimethylamino)styryl)-N-ethylpyridinium iodide, reference compound] registered an Excitation wavelength λex of 461 nm and a Fluorescence emission wavelength λem of 589 nm. Besides, the Fluorescence intensity entry in series [2] is listed as “+”.

Regarding `CCCCN(CCCC)c1ccc(/C=C/c2cc[n+](CCC[N+](CC)(CC)CC)cc2)cc1.[Br-].[Br-]` [FM1-43, reference compound], the Fluorescence intensity entry in series [3] is recorded as “+++”. In series [1], this molecule returned an Excitation wavelength λex of 503 nm and a Fluorescence emission wavelength λem of 627 nm. Further, the “Increase of staining properties by knockdown of SLC25A12 and TRPC2 genes” value in series [4] is reported as “about 30%”. For the same molecule, in series [4] (target gene SLC25A12 knockdown), the “Ratio of staining intensity (KD/control)” value worked out at 1.36. In series [4] (target gene TRPC2 knockdown), the “Ratio of staining intensity (KD/control)” value is given as 1.35.

In series [1], `CC1(C)C(/C=C/C=C/C=C/C=C2\N(CCCCS(=O)(=O)O)c3ccc4ccccc4c3C2(C)C)=[N+](CCCCS(=O)(=O)[O-])c2ccc3ccccc3c21` [ICG, indocyanine green, reference compound] gave an Excitation wavelength λex of 784 nm and a Fluorescence emission wavelength λem of 811 nm. Further, in series [2], the Fluorescence intensity entry is “No stained” and the Staining pattern entry is listed as “No stained”.

On to `CN1/C(=C\C=C\C2=[N+](C)c3ccccc3C2(C)C)C(C)(C)c2ccccc21` [Staining compound 43], for which the “Staining intensity of the hair cell compared with FM1-43 (FIG. 4)” value in series [5] is “higher”.

Regarding `CC/N=c1\cc2oc3cc(NCC)c(C)cc3c(-c3ccccc3C(=O)OCC)c-2cc1C` [Staining compound 54], the “Staining intensity of the hair cell compared with FM1-43 (FIG. 4)” value in series [5] was “higher”. Further, the “Increase of staining properties by knockdown of SLC25A12 and TRPC2 genes” value in series [4] is listed as “about 2 fold”. Besides, the “Ratio of staining intensity (KD/control)” value in series [4] (target gene SLC25A12 knockdown) came out at 2.06; in series [4] (target gene TRPC2 knockdown), 2.18.

As to `CCN1/C(=C\C=C\c2sc3ccccc3[n+]2CC)Sc2ccccc21` [Staining compound 65], the “Staining intensity of the hair cell compared with FM1-43 (FIG. 4)” value in series [5] is recorded as “higher”.

With `NCCS(=O)(=O)O` [Taurine, taurine], the “Change in staining intensity” value with hair cell of Zebrafish is “No change”.
